How the values were obtained:
[1] = target: T1, Adrenergic receptor alpha-2 (Rattus norvegicus, UniProt P22086+P19328+P22909); assay: Antagonistic activity against alpha-2 adrenergic receptor in rat vas deferens; type: functional, tissue-based
T1 sequence (P22086 whole entry): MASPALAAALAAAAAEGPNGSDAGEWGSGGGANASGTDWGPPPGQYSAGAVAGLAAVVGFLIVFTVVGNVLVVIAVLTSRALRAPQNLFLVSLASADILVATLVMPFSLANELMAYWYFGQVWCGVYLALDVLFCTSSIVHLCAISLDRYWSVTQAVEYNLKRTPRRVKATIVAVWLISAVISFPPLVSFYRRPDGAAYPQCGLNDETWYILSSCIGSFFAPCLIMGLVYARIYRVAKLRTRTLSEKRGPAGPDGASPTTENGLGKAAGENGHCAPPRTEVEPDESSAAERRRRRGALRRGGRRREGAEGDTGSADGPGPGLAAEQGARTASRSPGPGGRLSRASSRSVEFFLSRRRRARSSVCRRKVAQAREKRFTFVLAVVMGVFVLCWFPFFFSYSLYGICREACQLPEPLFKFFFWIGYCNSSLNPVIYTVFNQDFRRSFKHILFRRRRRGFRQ
T1 sequence (P19328 whole entry): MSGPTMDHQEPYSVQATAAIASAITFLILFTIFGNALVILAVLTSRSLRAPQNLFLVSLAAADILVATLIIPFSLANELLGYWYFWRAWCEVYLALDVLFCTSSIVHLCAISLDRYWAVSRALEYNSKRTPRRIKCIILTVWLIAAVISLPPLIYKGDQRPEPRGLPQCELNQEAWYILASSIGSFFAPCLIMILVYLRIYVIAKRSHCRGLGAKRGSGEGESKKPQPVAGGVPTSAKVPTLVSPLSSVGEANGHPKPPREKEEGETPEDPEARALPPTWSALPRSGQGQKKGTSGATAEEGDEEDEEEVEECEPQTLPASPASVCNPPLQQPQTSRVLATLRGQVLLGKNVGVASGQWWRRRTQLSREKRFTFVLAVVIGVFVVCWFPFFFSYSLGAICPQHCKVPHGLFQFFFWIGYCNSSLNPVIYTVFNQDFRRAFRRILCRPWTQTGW
T1 sequence (P22909 whole entry): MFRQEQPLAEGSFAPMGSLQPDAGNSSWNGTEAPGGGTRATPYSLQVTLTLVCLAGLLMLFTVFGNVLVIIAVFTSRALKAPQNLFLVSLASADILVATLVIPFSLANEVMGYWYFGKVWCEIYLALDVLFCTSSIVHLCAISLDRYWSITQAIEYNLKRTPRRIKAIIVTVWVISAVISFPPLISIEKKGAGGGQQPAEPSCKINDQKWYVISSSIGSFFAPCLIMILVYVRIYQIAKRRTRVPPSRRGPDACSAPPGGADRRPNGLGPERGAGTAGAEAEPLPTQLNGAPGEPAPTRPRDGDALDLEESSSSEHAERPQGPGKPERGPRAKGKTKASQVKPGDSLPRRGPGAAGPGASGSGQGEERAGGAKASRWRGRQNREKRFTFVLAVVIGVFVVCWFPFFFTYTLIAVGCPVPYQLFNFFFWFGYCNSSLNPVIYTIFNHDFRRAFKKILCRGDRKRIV

[2] = target: T2, Adrenergic receptor alpha-1 (Rattus norvegicus, UniProt P15823+P23944+P43140); assay: Antagonistic activity against alpha-1-adrenoceptor in isolated rat anococcygeus muscle; type: functional, tissue-based, Muscle tissue
T2 sequence (P15823 whole entry): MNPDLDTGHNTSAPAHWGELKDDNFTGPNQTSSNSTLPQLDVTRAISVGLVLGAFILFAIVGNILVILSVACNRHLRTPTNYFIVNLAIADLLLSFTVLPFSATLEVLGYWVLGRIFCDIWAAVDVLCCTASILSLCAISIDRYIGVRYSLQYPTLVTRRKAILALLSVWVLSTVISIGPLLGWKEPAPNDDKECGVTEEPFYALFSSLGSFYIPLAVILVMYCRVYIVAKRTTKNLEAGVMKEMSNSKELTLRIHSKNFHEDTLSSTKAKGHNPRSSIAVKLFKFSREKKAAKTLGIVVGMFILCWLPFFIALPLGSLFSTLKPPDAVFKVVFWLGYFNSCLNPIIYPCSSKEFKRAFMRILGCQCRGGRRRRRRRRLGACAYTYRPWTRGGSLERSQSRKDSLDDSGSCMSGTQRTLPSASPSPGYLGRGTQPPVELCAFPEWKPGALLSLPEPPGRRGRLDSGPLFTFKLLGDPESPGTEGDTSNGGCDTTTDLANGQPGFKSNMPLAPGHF
T2 sequence (P23944 whole entry): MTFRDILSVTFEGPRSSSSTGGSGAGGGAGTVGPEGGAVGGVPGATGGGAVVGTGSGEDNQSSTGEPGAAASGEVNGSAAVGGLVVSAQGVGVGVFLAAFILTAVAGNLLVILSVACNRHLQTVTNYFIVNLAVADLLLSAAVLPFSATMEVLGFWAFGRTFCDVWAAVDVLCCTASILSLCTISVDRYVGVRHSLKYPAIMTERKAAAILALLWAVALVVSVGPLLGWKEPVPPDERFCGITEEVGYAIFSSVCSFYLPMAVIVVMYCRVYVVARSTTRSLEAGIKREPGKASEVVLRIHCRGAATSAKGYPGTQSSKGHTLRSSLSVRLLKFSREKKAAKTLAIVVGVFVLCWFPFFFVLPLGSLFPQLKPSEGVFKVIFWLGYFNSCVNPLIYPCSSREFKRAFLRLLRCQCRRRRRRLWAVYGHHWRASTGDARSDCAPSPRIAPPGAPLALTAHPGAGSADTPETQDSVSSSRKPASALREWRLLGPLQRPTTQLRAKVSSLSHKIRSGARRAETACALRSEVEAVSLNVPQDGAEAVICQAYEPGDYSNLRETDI
T2 sequence (P43140 whole entry): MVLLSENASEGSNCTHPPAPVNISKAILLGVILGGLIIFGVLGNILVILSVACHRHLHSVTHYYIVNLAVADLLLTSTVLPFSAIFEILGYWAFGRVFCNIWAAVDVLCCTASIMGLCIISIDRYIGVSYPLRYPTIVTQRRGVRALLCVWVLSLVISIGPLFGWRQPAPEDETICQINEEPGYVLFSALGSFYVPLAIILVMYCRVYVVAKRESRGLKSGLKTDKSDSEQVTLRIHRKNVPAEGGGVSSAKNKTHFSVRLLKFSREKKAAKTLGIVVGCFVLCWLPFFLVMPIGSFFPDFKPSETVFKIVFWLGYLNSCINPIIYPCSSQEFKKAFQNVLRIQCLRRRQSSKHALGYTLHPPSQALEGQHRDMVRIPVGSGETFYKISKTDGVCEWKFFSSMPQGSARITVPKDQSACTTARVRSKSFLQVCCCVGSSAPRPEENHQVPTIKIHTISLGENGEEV

[3] = target: T2, Adrenergic receptor alpha-1; assay: Antagonistic activity against alpha-1 adrenergic receptor in rat anococcygeus muscle

pA2 [1] | pA2 [2] | pA2 [3] | SMILES
6.27 | 5.33 | – | CS(=O)(=O)N[C@@H]1CCN2CCc3ccccc3[C@@H]2C1
8.5 | – | 7.2 | CCCS(=O)(=O)N(C)[C@@H]1CCN2CCc3ccccc3[C@@H]2C1 (stereo in doubt)
8.05 | – | 6.9 | CC(C)CS(=O)(=O)N(C)[C@@H]1CCN2CCc3ccccc3[C@@H]2C1 (stereo in doubt)

Reference: ChEMBL document CHEMBL1124159, “Synthesis and structure-activity relationships of 2-sulfonamido-1,3,4,6,7,11b alpha-hexahydro-2H-benzo[a]quinolizines as alpha 2-adrenoceptor antagonists” (J Med Chem, 1988)
